From BindingDB's records for doi:10.1021/jm00043a010 (University of South Florida, 1994)

Target: Adenosine receptor A1 (Mesocricetus auratus)
Assay: Inhibition of specific binding of [3H]CPX to the A1 adenosine receptor in DDT1 MF-2 (DDT) cells.

| SMILES | IC50 [µM] |
| --- | --- |
| CCCn1c(=O)c2[nH]c(CNC(=O)CBr)nc2n(CCC)c1=O [2-Bromo-N-(2,6-dioxo-1,3-dipropyl-2,3,6,7-tetrahydro-1H-purin-8-ylmethyl)-acetamide] | 11 |
| CCCn1c(=O)c2[nH]c(CCNC(=O)CBr)nc2n(CCC)c1=O [2-Bromo-N-[2-(2,6-dioxo-1,3-dipropyl-2,3,6,7-tetrahydro-1H-purin-8-yl)-ethyl]-acetamide] | 4 |
| CCCn1c(=O)c2[nH]c(CCCCCNC(=O)CBr)nc2n(CCC)c1=O [2-Bromo-N-[5-(2,6-dioxo-1,3-dipropyl-2,3,6,7-tetrahydro-1H-purin-8-yl)-pentyl]-acetamide] | 1.2 |
| CCCn1c(=O)c2[nH]c(NC(=O)c3cccc(S(=O)(=O)F)c3)nc2n(CCC)c1=O [3-(2,6-Dioxo-1,3-dipropyl-2,3,6,7-tetrahydro-1H-purin-8-ylcarbamoyl)-benzenesulfonyl fluoride] | 3.5 |
| CCCn1c(=O)c2[nH]c(C3CCCC3)nc2n(CCCOC(=O)c2cccc(S(=O)(=O)F)c2)c1=O [3-Fluorosulfonyl-benzoic acid 3-(8-cyclopentyl-2,6-dioxo-1-propyl-1,2,6,7-tetrahydro-purin-3-yl)-propyl ester] | 0.02 |
| CCCn1c(=O)c2[nH]c(CCCNC(=O)c3cccc(S(=O)(=O)F)c3)nc2n(CCC)c1=O [3-[3-(2,6-Dioxo-1,3-dipropyl-2,3,6,7-tetrahydro-1H-purin-8-yl)-propylcarbamoyl]-benzenesulfonyl fluoride] | 2.6 |
| CCCn1c(=O)c2[nH]c(NC(=O)c3ccc(S(=O)(=O)F)cc3)nc2n(CCC)c1=O [4-(2,6-Dioxo-1,3-dipropyl-2,3,6,7-tetrahydro-1H-purin-8-ylcarbamoyl)-benzenesulfonyl fluoride] | 4.2 |
| CCCn1c(=O)c2[nH]c(C3CCC(OC(=O)c4ccc(S(=O)(=O)F)cc4)C3)nc2n(CCC)c1=O (centres undefined) [4-Fluorosulfonyl-benzoic acid 3-(2,6-dioxo-1,3-dipropyl-2,3,6,7-tetrahydro-1H-purin-8-yl)-cyclopentyl ester] | 0.06 |
| CCCn1c(=O)c2[nH]c(CCNC(=O)c3ccc(S(=O)(=O)F)cc3)nc2n(CCC)c1=O [4-[2-(2,6-Dioxo-1,3-dipropyl-2,3,6,7-tetrahydro-1H-purin-8-yl)-ethylcarbamoyl]-benzenesulfonyl fluoride] | 0.7 |
| CCCn1c(=O)c2[nH]c(CNC(=O)c3ccc(S(=O)(=O)F)cc3)nc2n(CCC)c1=O [4-[(2,6-Dioxo-1,3-dipropyl-2,3,6,7-tetrahydro-1H-purin-8-ylmethyl)-carbamoyl]-benzenesulfonyl fluoride] | 2 |
| CCCn1c(=O)c2[nH]c(-c3ccc(Cl)c([N+](=O)[O-])c3)nc2n(CCC)c1=O [8-(4-Chloro-3-nitro-phenyl)-1,3-dipropyl-3,7-dihydro-purine-2,6-dione] | 7 |
| CCCn1c(=O)c2[nH]c(CCCCCN3C(=O)C=CC3=O)nc2n(CCC)c1=O [8-[5-(2,5-Dioxo-2,5-dihydro-pyrrol-1-yl)-pentyl]-1,3-dipropyl-3,7-dihydro-purine-2,6-dione] | 2.2 |
| O=C(OCCCn1c(=O)c2[nH]c(C3CCCC3)nc2n(CCCOC(=O)c2ccc(S(=O)(=O)F)cc2)c1=O)c1ccc(S(=O)(=O)F)cc1 [8-cyclopentyl-1,3-di[3-(4-fluorosulfonylphenylcarbonyloxy)propyl]-2,6-dioxo-2,3,6,7-tetrahydro-1H-purine] | 3.5 |
| CCCn1c(=O)c2[nH]c(CNC(=O)c3ccccc3)nc2n(CCC)c1=O [N-(2,6-Dioxo-1,3-dipropyl-2,3,6,7-tetrahydro-1H-purin-8-ylmethyl)-benzamide] | 6.3 |
